# Test results reported in patent US10597388B2, “Pyridazinone herbicides” (FMC CORPORATION, priority 2014, dated 2020).
# Experiments:
# Assay in all cases: Test E greenhouse herbicide test, pre- and postemergence
# Type in all cases: in vivo
# [1] = system: barnyardgrass (Echinochloa crus-galli)
# Method in brief: (§1)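 Compounds in surfactant-containing solvent are applied to soil right after sowing (silt loam) and, in parallel, to 1- to 4-leaf plants in a peat-based medium. Weed control is scored visually on a 0 (none) to 100 (complete) scale at 14 to 21 d.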
# [2] = system: beggarticks (hairy beggarticks, Bidens pilosa)
# Method in brief: as §1
# corn (Zea mays) = system: corn (Zea mays)
# Method in brief: as §1
# [3] = system: crabgrass, Brazilian (Brazilian crabgrass, Digitaria horizontalis)
# Method in brief: as §1
# [4] = system: field bindweed (Convolvulus arvensis)
# Method in brief: as §1
# [5] = system: goosegrass (Eleusine indica); conditions: Preemergence
# Method in brief: as §1
# [6] = system: lambsquarters (Chenopodium album); conditions: Preemergence
# Method in brief: as §1
# [7] = system: nutsedge, yellow (yellow nutsedge, Cyperus esculentus); conditions: Preemergence
# Method in brief: as §1
# [8] = system: panicum, fall (fall panicum, Panicum dichotomiflorum)
# Method in brief: as §1
# [9] = system: ragweed (common ragweed, Ambrosia elatior)
# Method in brief: as §1
# [10] = system: sandbur (southem sandbur, Cenchrus echinatus)
# Method in brief: as §1
# [11] = system: surinam grass (Brachiaria decumbens); conditions: Preemergence
# Method in brief: as §1
# [12] = system: waterhemp (common waterhemp, Amaranthus rudis)
# Method in brief: as §1
# [13] = 62 g ai/ha, Postemergence, scale 0 to 100 (0 no effect, 100 complete control)
# [14] = 62 g ai/ha, Preemergence, scale 0 to 100 (0 no effect, 100 complete control)
# [15] = 125 g ai/ha, Postemergence, scale 0 to 100 (0 no effect, 100 complete control)
# [16] = 125 g ai/ha, Preemergence, scale 0 to 100 (0 no effect, 100 complete control)
# [17] = 250 g ai/ha, Postemergence, scale 0 to 100 (0 no effect, 100 complete control)
# [18] = Postemergence, 31 g ai/ha, visual, scale 0 no effect to 100 complete control
# [19] = Preemergence, 31 g ai/ha, scale 0 to 100, 0 no effect, 100 complete control
# [20] = Preemergence, 250 g ai/ha, visual, scale 0 no effect to 100 complete control
# [21] = 62 g ai/ha, scale 0 to 100 (0 no effect, 100 complete control)
# [22] = 125 g ai/ha, scale 0 to 100 (0 no effect, 100 complete control)
# [23] = 31 g ai/ha, scale 0 to 100, 0 no effect, 100 complete control
# [24] = 250 g ai/ha, visual, scale 0 no effect to 100 complete control
structure (smiles),measurement,setting,value
Cc1nn(C)c(=O)c(-c2ccc(Br)c3ccccc23)c1O [Compound 75],"Plant response rating, Barnyardgrass",[1]; [13],30
same,"Plant response rating, Barnyardgrass",[1]; [14],20
same,"Plant response rating, Barnyardgrass",[1]; [15],25
same,"Plant response rating, Barnyardgrass",[1]; [16],35
same,"Plant response rating, Barnyardgrass",[1]; [17],30
same,"Plant response rating, Barnyardgrass",[1]; [18],20
same,"Plant response rating, Barnyardgrass",[1]; [19],20
same,"Plant response rating, Barnyardgrass",[1]; [20],65
same,"Plant response rating, Beggarticks",[2]; [13],95
same,"Plant response rating, Beggarticks",[2]; [14],80
same,"Plant response rating, Beggarticks",[2]; [15],100
same,"Plant response rating, Beggarticks",[2]; [16],100
same,"Plant response rating, Beggarticks",[2]; [17],100
same,"Plant response rating, Beggarticks",[2]; [18],100
same,"Plant response rating, Beggarticks",[2]; [19],35
same,"Plant response rating, Beggarticks",[2]; [20],100
same,"Plant response rating, Corn",corn (Zea mays); [13],0
same,"Plant response rating, Corn",corn (Zea mays); [14],0
same,"Plant response rating, Corn",corn (Zea mays); [15],0
same,"Plant response rating, Corn",corn (Zea mays); [16],0
same,"Plant response rating, Corn",corn (Zea mays); [17],0
same,"Plant response rating, Corn",corn (Zea mays); [18],0
same,"Plant response rating, Corn",corn (Zea mays); [19],0
same,"Plant response rating, Corn",corn (Zea mays); [20],35
same,"Plant response rating, Crabgrass, Brazil",[3]; [13],40
same,"Plant response rating, Crabgrass, Brazil",[3]; [14],20
same,"Plant response rating, Crabgrass, Brazil",[3]; [15],50
same,"Plant response rating, Crabgrass, Brazil",[3]; [16],90
same,"Plant response rating, Crabgrass, Brazil",[3]; [17],50
same,"Plant response rating, Crabgrass, Brazil",[3]; [18],40
same,"Plant response rating, Crabgrass, Brazil",[3]; [19],0
same,"Plant response rating, Crabgrass, Brazil",[3]; [20],90
same,"Plant response rating, Field Bindweed",[4]; [13],90
same,"Plant response rating, Field Bindweed",[4]; [14],5
same,"Plant response rating, Field Bindweed",[4]; [15],80
same,"Plant response rating, Field Bindweed",[4]; [16],100
same,"Plant response rating, Field Bindweed",[4]; [17],85
same,"Plant response rating, Field Bindweed",[4]; [18],85
same,"Plant response rating, Field Bindweed",[4]; [19],0
same,"Plant response rating, Field Bindweed",[4]; [20],98
same,"Plant response rating, Goosegrass",[5]; [21],0
same,"Plant response rating, Goosegrass",[5]; [22],0
same,"Plant response rating, Goosegrass",[5]; [23],0
same,"Plant response rating, Goosegrass",[5]; [24],5
same,"Plant response rating, Lambsquarters",[6]; [21],100
same,"Plant response rating, Lambsquarters",[6]; [22],100
same,"Plant response rating, Lambsquarters",[6]; [23],100
same,"Plant response rating, Lambsquarters",[6]; [24],100
same,"Plant response rating, Nutsedge, Yellow",[7]; [21],10
same,"Plant response rating, Nutsedge, Yellow",[7]; [22],70
same,"Plant response rating, Nutsedge, Yellow",[7]; [23],0
same,"Plant response rating, Nutsedge, Yellow",[7]; [24],65
same,"Plant response rating, Panicum, Fall",[8]; [13],40
same,"Plant response rating, Panicum, Fall",[8]; [14],50
same,"Plant response rating, Panicum, Fall",[8]; [15],50
same,"Plant response rating, Panicum, Fall",[8]; [16],80
same,"Plant response rating, Panicum, Fall",[8]; [17],60
same,"Plant response rating, Panicum, Fall",[8]; [18],50
same,"Plant response rating, Panicum, Fall",[8]; [19],10
same,"Plant response rating, Panicum, Fall",[8]; [20],90
same,"Plant response rating, Ragweed",[9]; [13],70
same,"Plant response rating, Ragweed",[9]; [14],65
same,"Plant response rating, Ragweed",[9]; [15],60
same,"Plant response rating, Ragweed",[9]; [16],80
same,"Plant response rating, Ragweed",[9]; [17],90
same,"Plant response rating, Ragweed",[9]; [18],55
same,"Plant response rating, Ragweed",[9]; [19],35
same,"Plant response rating, Ragweed",[9]; [20],100
same,"Plant response rating, Sandbur",[10]; [13],20
same,"Plant response rating, Sandbur",[10]; [14],10
same,"Plant response rating, Sandbur",[10]; [15],20
same,"Plant response rating, Sandbur",[10]; [16],40
same,"Plant response rating, Sandbur",[10]; [17],30
same,"Plant response rating, Sandbur",[10]; [18],10
same,"Plant response rating, Sandbur",[10]; [19],0
same,"Plant response rating, Sandbur",[10]; [20],70
same,"Plant response rating, Surinam Grass",[11]; [21],35
same,"Plant response rating, Surinam Grass",[11]; [22],60
same,"Plant response rating, Surinam Grass",[11]; [23],5
same,"Plant response rating, Surinam Grass",[11]; [24],90
same,"Plant response rating, Waterhemp",[12]; [13],90
same,"Plant response rating, Waterhemp",[12]; [14],60
same,"Plant response rating, Waterhemp",[12]; [15],90
same,"Plant response rating, Waterhemp",[12]; [16],100
same,"Plant response rating, Waterhemp",[12]; [17],95
same,"Plant response rating, Waterhemp",[12]; [18],80
same,"Plant response rating, Waterhemp",[12]; [19],50
same,"Plant response rating, Waterhemp",[12]; [20],100
Cc1ccc2sc(Br)c(-c3c(O)c(C)nn(C)c3=O)c2c1 [Compound 79],"Plant response rating, Barnyardgrass",[1]; [13],15
same,"Plant response rating, Barnyardgrass",[1]; [14],30
same,"Plant response rating, Barnyardgrass",[1]; [15],20
same,"Plant response rating, Barnyardgrass",[1]; [16],40
same,"Plant response rating, Barnyardgrass",[1]; [17],20
same,"Plant response rating, Barnyardgrass",[1]; [18],15
same,"Plant response rating, Barnyardgrass",[1]; [19],30
same,"Plant response rating, Barnyardgrass",[1]; [20],50
same,"Plant response rating, Beggarticks",[2]; [13],100
same,"Plant response rating, Beggarticks",[2]; [14],100
same,"Plant response rating, Beggarticks",[2]; [15],100
same,"Plant response rating, Beggarticks",[2]; [16],100
same,"Plant response rating, Beggarticks",[2]; [17],100
same,"Plant response rating, Beggarticks",[2]; [18],100
same,"Plant response rating, Beggarticks",[2]; [19],100
same,"Plant response rating, Beggarticks",[2]; [20],100
same,"Plant response rating, Corn",corn (Zea mays); [13],0
same,"Plant response rating, Corn",corn (Zea mays); [14],0
same,"Plant response rating, Corn",corn (Zea mays); [15],0
same,"Plant response rating, Corn",corn (Zea mays); [16],0
same,"Plant response rating, Corn",corn (Zea mays); [17],0
same,"Plant response rating, Corn",corn (Zea mays); [18],0
same,"Plant response rating, Corn",corn (Zea mays); [19],0
same,"Plant response rating, Corn",corn (Zea mays); [20],20
same,"Plant response rating, Crabgrass, Brazil",[3]; [13],20
same,"Plant response rating, Crabgrass, Brazil",[3]; [14],30
same,"Plant response rating, Crabgrass, Brazil",[3]; [15],25
same,"Plant response rating, Crabgrass, Brazil",[3]; [16],80
same,"Plant response rating, Crabgrass, Brazil",[3]; [17],40
same,"Plant response rating, Crabgrass, Brazil",[3]; [18],20
same,"Plant response rating, Crabgrass, Brazil",[3]; [20],100
same,"Plant response rating, Field Bindweed",[4]; [13],95
same,"Plant response rating, Field Bindweed",[4]; [14],90
same,"Plant response rating, Field Bindweed",[4]; [15],95
same,"Plant response rating, Field Bindweed",[4]; [16],100
same,"Plant response rating, Field Bindweed",[4]; [17],95
same,"Plant response rating, Field Bindweed",[4]; [18],80
same,"Plant response rating, Field Bindweed",[4]; [19],60
same,"Plant response rating, Field Bindweed",[4]; [20],100
same,"Plant response rating, Goosegrass",[5]; [21],60
same,"Plant response rating, Goosegrass",[5]; [22],60
same,"Plant response rating, Goosegrass",[5]; [23],50
same,"Plant response rating, Goosegrass",[5]; [24],65
same,"Plant response rating, Lambsquarters",[6]; [21],100
same,"Plant response rating, Lambsquarters",[6]; [22],100
same,"Plant response rating, Lambsquarters",[6]; [23],100
same,"Plant response rating, Lambsquarters",[6]; [24],100
same,"Plant response rating, Nutsedge, Yellow",[7]; [21],60
same,"Plant response rating, Nutsedge, Yellow",[7]; [22],65
same,"Plant response rating, Nutsedge, Yellow",[7]; [23],50
same,"Plant response rating, Nutsedge, Yellow",[7]; [24],75
same,"Plant response rating, Panicum, Fall",[8]; [13],60
same,"Plant response rating, Panicum, Fall",[8]; [14],70
same,"Plant response rating, Panicum, Fall",[8]; [15],60
same,"Plant response rating, Panicum, Fall",[8]; [16],80
same,"Plant response rating, Panicum, Fall",[8]; [17],75
same,"Plant response rating, Panicum, Fall",[8]; [18],55
same,"Plant response rating, Panicum, Fall",[8]; [19],80
same,"Plant response rating, Panicum, Fall",[8]; [20],90
same,"Plant response rating, Ragweed",[9]; [13],98
same,"Plant response rating, Ragweed",[9]; [14],100
same,"Plant response rating, Ragweed",[9]; [15],95
same,"Plant response rating, Ragweed",[9]; [16],100
same,"Plant response rating, Ragweed",[9]; [17],100
same,"Plant response rating, Ragweed",[9]; [18],90
same,"Plant response rating, Ragweed",[9]; [19],100
same,"Plant response rating, Ragweed",[9]; [20],100
same,"Plant response rating, Sandbur",[10]; [13],30
same,"Plant response rating, Sandbur",[10]; [14],70
same,"Plant response rating, Sandbur",[10]; [15],50
same,"Plant response rating, Sandbur",[10]; [16],80
same,"Plant response rating, Sandbur",[10]; [17],65
same,"Plant response rating, Sandbur",[10]; [18],20
same,"Plant response rating, Sandbur",[10]; [19],60
same,"Plant response rating, Sandbur",[10]; [20],75
same,"Plant response rating, Surinam Grass",[11]; [21],50
same,"Plant response rating, Surinam Grass",[11]; [22],60
same,"Plant response rating, Surinam Grass",[11]; [23],40
same,"Plant response rating, Surinam Grass",[11]; [24],80
same,"Plant response rating, Waterhemp",[12]; [13],60
same,"Plant response rating, Waterhemp",[12]; [14],100
same,"Plant response rating, Waterhemp",[12]; [15],70
same,"Plant response rating, Waterhemp",[12]; [16],100
same,"Plant response rating, Waterhemp",[12]; [17],80
same,"Plant response rating, Waterhemp",[12]; [18],50
same,"Plant response rating, Waterhemp",[12]; [19],75
same,"Plant response rating, Waterhemp",[12]; [20],100
